From patent US9593307B2, “Defined media for expansion and maintenance of pluripotent stem cells” (Janssen Biotech, Inc., priority 2012, dated 2017) come the findings set out here.

Assay [1] concerns human embryonic stem cell line H1. Nature of the assay: Culture in test media: growth and colony morphology (phase-contrast). To be noted: Example 5. Format: cell-based. As to the method: Cells of the human embryonic stem cell line H1 (at passage 35 to passage 40), cultured on MATRIGEL™ (Catalog No. 354230, 1:30 dilution; Corning Incorporated, Corning, N.Y.) coated dishes in mTeSR®1 media (Catalog No. 05850, Stem-Cell Technologies, Inc., Vancouver BC, Canada) and passaged using ethylenediaminetetraacetic acid (“EDTA”), were used as the starting population to test various media compositions. Cells were passaged as small colonies using 5-10 min EDTA (Catalog No. #170711E, Lonza Walkersville, Inc., Walkersville, Md.) treatment at room temperature. Cultures were routinely split in a ratio of 1:6 to 1:10 at each passage. Table I lists the initial media formulations tested for their ability to proliferate H1 cells while maintaining their undifferentiated morphology and pluripotency markers.
Media IH-1, IH-3, and IH-6 were selected for further evaluation.

Assay [2] has the same test system. Put plainly: Real-time PCR of pluripotency and differentiation genes. The assay is classed as cell-based. To be noted: passage 3, Example 5. The text has this: After passage 5, only IH-1 and IH-3 were further compared to the cells cultured in mTeSR®1 media (Catalog No. 05850, Stem-Cell Technologies, Inc., Vancouver BC, Canada). […]
Approximately 1% of the cells were SOX17+ (FIG. 7D) and ˜85% of the cells were FOXA2+ (FIG. 7E). FIG. 8A to FIG. 8F show images of immunofluorescence staining of H1 cells cultured in IH-3 media for 18 passages. These images illustrate that a significant number of OCT4 and SOX2 positive cells were also FOXA2+. H1 cells cultured in IH3 media had acquired a phenotype where at least 70% of the cells were OCT4+ NANOG+ SOX2+ KI-67+ ZFP42− and FOXA2+. This represents a population of cells not yet described in the art.
On the technique in general: Real-time PCR tracks product formation cycle by cycle.

Setting [3] is: day 4 following seeding, IH-3-2 media with the given BSA.
[4] abbreviates: passage 3, IH-3-2 media with the given BSA.

As to “Sigma BSA: 2% Sigma BSA (catalog No. A2153; Lot: 061M1804V, Sigma Aldrich) used to supplement IH-3-2 media”, the Cell morphology result in assay [1] (setting [3]) and in assay [1] (setting [4]) was “morphological evidence of differentiated cells” each time. The Confluency of cells result in assay [1] (passage 3, compared to fatty acid free BSA) is on record as “significant drop in confluency”. In assay [2], the “Markers associated with a differentiated cell (AFP, MIXL1, T (BRY); PCR)” value is given as “significant upregulation”.

As to “fatty acid-free BSA: fatty-acid free BSA (Catalog No. 7500804; Lot: 11G54001, LAMPIRE Biological Laboratories) in IH-3-2 media”, the Cell morphology entry in assay [1] (setting [3]) and in assay [1] (setting [4]) was “no gross differentiated cell morphology evident” each time.
